The IC50 is the midpoint of a concentration-inhibition curve. Low values mean inhibition by little substance, high ones a need for much substance. What is called EC50 is the concentration giving half of the maximal effect. The low end stands for an effect from little substance, the high end for a need for much substance.

The values that follow come from US9187437B2, “Substituted oxadiazole compounds” (BRISTOL-MYERS SQUIBB COMPANY, priority 2010, dated 2015).

Structures are written as SMILES.

For assay [1], the target named is T1, S1P1 (Homo sapiens (Human), UniProt P21453). The assay can be described thus: S1P1 Binding Assay (33P-S1P radioligand competition, membranes from CHO cells). The settings on record: membranes from CHO cells expressing human S1P1; 0.03 nM 33P-S1P; rounded to two significant digits. On the procedure: Membranes were prepared from CHO cells expressing human S1P1. Cells pellets (1×10^8 cells/pellet) were suspended in buffer containing 20 mM HEPES, pH 7.5, 50 mM NaCl, 2 mM EDTA and Protease Inhibitor cocktail (Roche), and disrupted on ice using the Polytron homogenizer. The homogenate was centrifuged at 20,000 rpm (48,000 g) and the supernatant was discarded. The membrane pellets were resuspended in buffer containing 50 mM HEPES, pH 7.5, 100 mM NaCl, 1 mM MgCl2, 2 mM EDTA and stored in aliquots at −80° C. after protein concentration determination.
The IC50 is defined as the concentration of competing ligand needed to reduce specific binding by 50%.
On the technique in general: Displacement assays read how much labelled ligand stays bound in the presence of the test substance.

The target in the next assay is S1P3 (Homo sapiens (Human), UniProt Q99500). The assay can be described thus: Receptor [35S] GTPγS Binding Assay, EDG3-Ga15-bla HEK293T cell membranes. Format: biochemical. The note with it: membranes from EDG3-Ga15-bla HEK293T cells; rounded to two significant digits. How it is done:
(§1) Receptor [35S] GTPγS Binding Assays
(§2) Compounds were loaded in a 384 Falcon v-bottom plate (0.5 μl/well in a 11 point, 3-fold dilution). Membranes prepared from S1P1/CHO cells or EDG3-Ga15-bla HEK293T cells were added to the compound plate (40 μl/well, final protein 3 μg/well) with MULTIDROP®. [^35S]GTP (1250 Ci/mmol, Perkin Elmer) was diluted in assay buffer: 20 mM HEPES, pH7.5, 10 mM MgCl2, 150 mM NaCl, 1 mM EGTA, 1 mM DTT, 10 μM GDP, 0.1% fatty acid free BSA, and 10 μg/ml Saponin to 0.4 nM. 40 μl of the [^35S] GTP solution was added to the compound plate with a final concentration of 0.2 nM. The reaction was kept at room temperature for 45 min. At the end of incubation, all the mixtures in the compound plate were transferred to Millipore 384-well FB filter plates via the VELOCITY11® Vprep liquid handler. The filter plate was washed with water 4 times by using the manifold Embla plate washer and dried at 60° C. for 45 min. MicroScint 20 scintillation fluid (30 μl) was added to each well for counting on the Packard TOPCOUNT®. EC50 is defined as the agonist concentration that corresponds to 50% of the Ymax (maximal response) obtained for each individual compound tested. The results in Table B were rounded to two significant digits.
In general terms: Binding of GTPγS marks nucleotide exchange on a G protein.

Assay [2] concerns the target T1, S1P1. The assay can be described thus: Receptor [35S] GTPγS Binding Assay, S1P1/CHO cell membranes. The class given is biochemical. The note with it: membranes from S1P1/CHO cells; rounded to two significant digits. On the procedure: as §1, §2

T1 sequence (P21453 whole entry): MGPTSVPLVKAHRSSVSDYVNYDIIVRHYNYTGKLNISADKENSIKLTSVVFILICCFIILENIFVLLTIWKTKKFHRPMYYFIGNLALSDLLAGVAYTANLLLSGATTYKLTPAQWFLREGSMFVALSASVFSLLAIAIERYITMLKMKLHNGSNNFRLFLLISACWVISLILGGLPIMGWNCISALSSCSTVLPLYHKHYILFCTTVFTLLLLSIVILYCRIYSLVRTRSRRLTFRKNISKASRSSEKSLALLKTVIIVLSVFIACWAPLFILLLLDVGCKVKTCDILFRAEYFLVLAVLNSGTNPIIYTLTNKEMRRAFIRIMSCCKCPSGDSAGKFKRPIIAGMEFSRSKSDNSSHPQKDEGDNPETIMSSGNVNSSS
Chain of S1P3 (Q99500 whole entry): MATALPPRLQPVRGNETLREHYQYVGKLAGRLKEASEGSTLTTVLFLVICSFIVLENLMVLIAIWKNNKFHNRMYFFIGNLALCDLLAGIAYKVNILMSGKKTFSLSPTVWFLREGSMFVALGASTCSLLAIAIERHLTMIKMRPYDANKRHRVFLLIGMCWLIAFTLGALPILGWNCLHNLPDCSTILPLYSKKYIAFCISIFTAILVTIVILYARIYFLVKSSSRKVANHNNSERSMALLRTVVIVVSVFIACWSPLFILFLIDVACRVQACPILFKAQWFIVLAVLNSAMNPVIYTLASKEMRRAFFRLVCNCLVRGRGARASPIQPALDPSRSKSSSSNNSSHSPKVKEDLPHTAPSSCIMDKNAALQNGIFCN

As to `Fc1ccccc1COc1ccc(-c2noc(CCC3(c4ccccc4)CCCCC3)n2)cc1` [Example 20, 3-(4-((2-fluorobenzyl)oxy)phenyl)-5-(2-(1-phenylcyclohexyl)ethyl)-1,2,4-oxadiazole], the IC50 at S1P1 [1] is 410 nM.
As for `c1ccc(C2(CCc3nc(-c4cccnc4)no3)CCCCC2)cc1` [Example 38, 3-(5-(2-(1-phenylcyclohexyl)ethyl)-1,2,4-oxadiazol-3-yl)pyridine], the EC50 at S1P3 turned out to be 2200 nM; at S1P1 [2], 100 nM.
As to `Clc1ccc(COc2ccc(-c3noc(CCC4(c5ccccc5)CCCCC4)n3)cc2)cc1` [Example 27, 3-(4-((4-chlorobenzyl)oxy)phenyl)-5-(2-(1-phenylcyclohexyl)ethyl)-1,2,4-oxadiazole], the IC50 at S1P1 [1] amounted to 610 nM.
Same read-out and setting: under `Fc1cc(-c2noc(CCC3(c4ccccc4)CCCCC3)n2)ccc1C(F)(F)F` [Example 13, 3-(3-fluoro-4-(trifluoromethyl)phenyl)-5-(2-(1-phenylcyclohexyl)ethyl)-1,2,4-oxadiazole] stands 210 nM; under `Cc1ccc(-c2noc(CCC3(c4cc(F)cc(F)c4)CCCCC3)n2)c(=O)[nH]1` [Example 1, 3-(5-(2-(1-(3,5-Difluorophenyl)cyclohexyl)ethyl)-1,2,4-oxadiazol-3-yl)-6-methyl-2(1H)-pyridinone], 1300 nM; under `Cc1ccsc1-c1noc(CCC2(c3ccccc3)CCCCC2)n1` [Example 40, 3-(3-methyl-2-thienyl)-5-(2-(1-phenylcyclohexyl)ethyl)-1,2,4-oxadiazole], 1.2 nM.
In the case of `COc1cc(OC)cc(-c2noc(CCC3(c4ccccc4)CCCCC3)n2)c1` [Example 19, 3-(3,5-dimethoxyphenyl)-5-(2-(1-phenylcyclohexyl)ethyl)-1,2,4-oxadiazole], the EC50 at S1P3 came to 1700 nM; at S1P1 [2], 2200 nM.
For `Clc1cc(-c2noc(CCC3(c4ccccc4)CCCCC3)n2)ccn1` [Example 32, 2-chloro-4-(5-(2-(1-phenylcyclohexyl)ethyl)-1,2,4-oxadiazol-3-yl)pyridine], the EC50 stood at 430 nM on S1P3 and 50 nM on S1P1 [2]. This compound also had an IC50 on S1P1 [1] of 0.54 nM.
Turning to `Fc1ccc(-c2noc(CCC3(c4ccccc4)CCCCC3)n2)cc1F` [Example 12, 3-(3,4-difluorophenyl)-5-(2-(1-phenylcyclohexyl)ethyl)-1,2,4-oxadiazole], the concentration for a half-maximal effect (EC50) at S1P3 was 5900 nM; at S1P1 [2], 330 nM.
Regarding `c1ccc(C2(CCc3nc(-c4ccccn4)no3)CCCCC2)cc1` [Example 30, 2-(5-(2-(1-phenylcyclohexyl)ethyl)-1,2,4-oxadiazol-3-yl)pyridine], the IC50 on S1P1 [1] was found to be 97 nM.
For the compound `c1ccc(-c2noc(C3(c4ccccc4)CCCCC3)n2)cc1` [Example 42, 3-Phenyl-5-(1-phenylcyclohexyl)-1,2,4-oxadiazole, reference compound], the EC50 at S1P1 [2] was > 62000 nM. Moreover, the half-inhibitory concentration (IC50) on S1P1 [1] is 12000 nM.
Regarding `c1ccc(-c2noc(CCC3(c4ccccc4)CCCCC3)n2)cc1` [Example 7, 3-phenyl-5-(2-(1-phenylcyclohexyl)ethyl)-1,2,4-oxadiazole], the EC50 at S1P3 was 630 nM; on S1P1 [2], 130 nM. Further, at S1P1 [1], the IC50 came to 3.3 nM.
Turning to `COc1ccc(OC)c(-c2noc(CCC3(c4ccccc4)CCCCC3)n2)c1` [Example 26, 3-(2,5-dimethoxyphenyl)-5-(2-(1-phenylcyclohexyl)ethyl)-1,2,4-oxadiazole], the figures for the EC50 at S1P3 and at S1P1 [2] were 16000 nM and 4900 nM, respectively. Besides, the IC50 at S1P1 [1] worked out at 8.1 nM.
For `Nc1cc(-c2noc(CCC3(c4ccccc4)CCCCC3)n2)ccn1` [Example 29, 4-(5-(2-(1-phenylcyclohexyl)ethyl)-1,2,4-oxadiazol-3-yl)-2-pyridinamine], the EC50 at S1P3 came to 430 nM; on S1P1 [2] it was 36 nM.
For `Nc1ncccc1-c1noc(CCC2(c3ccccc3)CCCCC2)n1` [Example 33, 3-(5-(2-(1-phenylcyclohexyl)ethyl)-1,2,4-oxadiazol-3-yl)-2-pyridinamine], the EC50 on S1P3 turned out to be 550 nM; on S1P1 [2], 67 nM. At S1P1 [1], the half-inhibitory concentration (IC50) came out at 1.9 nM.
Consider `Clc1ccc(-c2noc(CCC3(c4ccccc4)CCCCC3)n2)c(Cl)c1` [Example 17, 3-(2,4-dichlorophenyl)-5-(2-(1-phenylcyclohexyl)ethyl)-1,2,4-oxadiazole], for which the values for the half-maximal effective concentration (EC50) on S1P3 and at S1P1 [2] were 1200 nM and 740 nM, respectively.
On S1P1 [1], `Fc1ccc(-c2noc(CCC3(c4ccccc4)CCCCC3)n2)cc1` [Example 5, 3-(4-fluorophenyl)-5-(2-(1-phenylcyclohexyl)ethyl)-1,2,4-oxadiazole] had a concentration for half-maximal inhibition (IC50) of 12 nM.
Same read-out and setting: under `Fc1ccc(-c2noc(CCC3(c4ccccc4)CCCCC3)n2)c(F)c1` [Example 28, 3-(2,4-difluorophenyl)-5-(2-(1-phenylcyclohexyl)ethyl)-1,2,4-oxadiazole] stands 25 nM.
Take `Cc1cccc(-c2noc(CCC3(c4ccccc4)CCCCC3)n2)c1` [Example 9, 3-(3-methylphenyl)-5-(2-(1-phenylcyclohexyl)ethyl)-1,2,4-oxadiazole]: the EC50 at S1P3 came out at 2200 nM; on S1P1 [2], 530 nM.
In the same order, the values of `Clc1ncn(Cc2cccc(-c3noc(CCC4(c5ccccc5)CCCCC4)n3)c2)c1Cl` [Example 24, 3-(3-((4,5-dichloro-1H-imidazol-1-yl)methyl)phenyl)-5-(2-(1-phenylcyclohexyl)ethyl)-1,2,4-oxadiazole] are 1300 nM and 3200 nM.
As to `FC(F)(F)c1cc(-c2noc(CCC3(c4ccccc4)CCCCC3)n2)cc(C(F)(F)F)c1` [Example 4, 3-(3,5-bis(trifluoromethyl)phenyl)-5-(2-(1-phenylcyclohexyl)ethyl)-1,2,4-oxadiazole], the results for the EC50 at S1P3 and at S1P1 [2] were > 62000 nM and 280 nM, respectively.
Regarding `O=c1cc(-c2noc(CCC3(c4cc(F)cc(F)c4)CCCCC3)n2)cc[nH]1` [Example 2, 4-(5-(2-(1-(3,5-Difluorophenyl)cyclohexyl)ethyl)-1,2,4-oxadiazol-3-yl)-2(1H)-pyridinone], on S1P1 [1], the IC50 amounted to 13 nM.
Turning to `FC(F)(F)c1cccc(-c2noc(CCC3(c4ccccc4)CCCCC3)n2)c1` [Example 8, 5-(2-(1-phenylcyclohexyl)ethyl)-3-(3-(trifluoromethyl)phenyl)-1,2,4-oxadiazole], the concentration giving a half-maximal response (EC50) at S1P3 is > 62000 nM; at S1P1 [2], 710 nM. The compound further gave an IC50 on S1P1 [1] of 33 nM.
For the compound `[O-][n+]1ccc(-c2noc(CCC3(c4ccccc4)CCCCC3)n2)cc1` [Example 34, 4-(5-(2-(1-phenylcyclohexyl)ethyl)-1,2,4-oxadiazol-3-yl)pyridine 1-oxide], the half-maximal inhibitory concentration (IC50) at S1P1 [1] was found to be 67 nM.
